In PubChem BioAssay AID504322 (Emory University Molecular Libraries Screening Center, 2011):
Activity calls are given as the source filed them. How the calls were made is not given here.

Tested on: CHOP reporter cell assay, percent of control
Assay: CHOP reporter inhibitor potency, dose response, cell-based (AID 504322);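 further: CHO cells carrying a CHOP reporter stimulated with tunicamycin to induce ER stress; potency is for inhibition of the stress-induced reporter signal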

| Structure (SMILES) | IC50 |
| --- | --- |
| Cc1ccc(Cn2c(SCC(=O)Nc3cc(C)on3)nc3ccccc3c2=O)cc1 | 5.78 µM (inactive) |
| Cn1c(=O)c(C(=O)Nc2ncccc2O)c(O)c2ccccc21 | 9.46 µM (inactive) |
| CCN(CCO)c1ncnc2c1sc1nc(CC(C)C)c3c(c12)CC(C)(C)OC3 | 9.11 µM (inactive) |
| CCOC(=O)c1cnc(-n2nc(C)cc2C)nc1NC1CCCCC1 | > 10 µM (inactive) |
| CCCC(=O)NC(NC(=S)Nc1ccc(N=Nc2ccccc2)cc1)C(Cl)(Cl)Cl (centres undefined) | 7.31 µM |
| O=C1NC[C@@H](Cc2cccc3ccccc23)N(CCc2cc(C(F)(F)F)cc(C(F)(F)F)c2)C1=O | 9.02 µM (inactive) |
| COCCCn1c(N)c(C(=O)NCCC(C)C)c2nc3ccccc3nc21 | 9.46 µM (inactive) |
| O=[N+]([O-])c1ccc(/C=N/N=C/c2ccc([N+](=O)[O-])o2)o1 | 1.78 µM |
| COc1ccc2nc(Nc3nc(CSc4nc5ccccc5[nH]4)cc(=O)[nH]3)nc(C)c2c1 | 2.33 µM (inactive) |
| COC(=O)[C@]12OC[C@]34C([C@@H](O)[C@@H]1O)[C@]1(C)CC(=O)C(O)=C(C)[C@@H]1C[C@H]3OC(=O)[C@H](O)[C@@H]24 (some centres undefined) | < 0.16 µM |
| CC(C)C[C@H](NC(=O)OC(C)(C)C)c1nnc(SCC(=O)Nc2ccc(Br)cc2)o1 | 5.57 µM (inactive) |
| O=Cc1s/c(=N\S(=O)(=O)c2ccccc2)n(CCCCl)c1Cl | 5.89 µM (inactive) |
| COc1ccc(NC(=O)c2cc(-c3cc(C)cc(C)c3O)n[nH]2)cc1Cl | 8.79 µM (inactive) |
| Cc1ccc2sc(N(CCCN(C)C)C(=O)c3nc4ccccc4s3)nc2c1C | 9.48 µM (inactive) |
| COc1ccccc1NCC(O)COc1ccc(C(C)(C)C)cc1 (centres undefined) | 9.32 µM (inactive) |
| CC1=C/C(=N\OS(=O)(=O)c2ccccc2)C(C)=CC1=O | 0.9 µM |
| CCNc1nc(Oc2c(Cl)cccc2Cl)cc(C(F)(F)F)n1 | 2.74 µM |
| O=c1c(Br)c(Br)cnn1-c1ccccc1 | 4.97 µM (inactive) |
| COc1ccc(C(=O)/C=C/C(=O)N(CC(=O)NCCC(C)C)Cc2cccs2)c(O)c1 | 9.55 µM (inactive) |
| CCOC(=O)N=Nc1c2ccccc2c2nc3no[nH]c3nc12 | 4.21 µM |
| O=[N+]([O-])c1ccc(-c2nn(-c3ccccc3)cc2/C=N/n2c(-c3cccs3)n[nH]c2=S)cc1 | > 10 µM (inactive) |
| C[C@H](NC(=O)c1[nH]cnc1C(=O)Nc1ccc(CNC(=O)OC(C)(C)C)cc1)C(=O)OC(C)(C)C | > 10 µM (inactive) |

| Structure (SMILES) | IC50 |
| --- | --- |
| CC(C)=NOc1cc(NC(=O)CCl)cc([N+](=O)[O-])c1 | 9.61 µM (inactive) |
| O=c1c(Cl)nc2cc(Cl)ccc2n1CCNc1ncc(C(F)(F)F)cc1Cl | 2.49 µM |
| CC1=CCC[C@@H]2[C@@](C)(CC/C(C)=C/C(=O)O)[C@H](C)CC[C@@]12C | 9.68 µM (inactive) |
| COc1ccc2c3c(cccc13)C(=O)N(O)C2=O | 2.57 µM |
| O=C(CN1CCN(c2ncc(C(F)(F)F)cc2Cl)CC1)NCCNc1ncc(C(F)(F)F)cc1Cl | 3.88 µM |
| CC(=O)NCc1ccc(C(=O)CCl)s1 | 9.42 µM (inactive) |
| CC1=C(C)/C(=N\OS(=O)(=O)c2ccc(C)cc2)C=CC1=O | 3.68 µM (inactive) |
| Cc1ccc2nc(NC(=O)C3CCN(S(=O)(=O)c4cc([N+](=O)[O-])ccc4Cl)CC3)sc2c1 | 3.51 µM |
| O=c1[nH]c(=O)n(Cc2ccco2)c2c1C(C(F)(F)F)(C(F)(F)F)N=C(c1ccc(F)cc1)N2 | 6.5 µM (inactive) |
| CC1=NNC(=O)/C1=C\c1cn(-c2ccccc2)nc1-c1ccc(F)cc1 | 9.5 µM (inactive) |
| O=C1CC(c2ccco2)CC(O)=C1C=Nc1ccccc1-c1ccccc1 (centres undefined) | 2.84 µM (inactive) |
| O=C1c2[nH]nc(-c3ccccc3O)c2C(c2cccc(Cl)c2)N1Cc1ccco1 (centres undefined) | 9.62 µM (inactive) |
| Cc1ccc(NC(=O)c2nc[nH]c2C(=O)N[C@@H](C)C(=O)OC(C)(C)C)cc1 | 5.12 µM (inactive) |
| O=C1NC(=S)S/C1=C\C=C\c1ccc([N+](=O)[O-])o1 | 9.29 µM (inactive) |
| Oc1ccc(Oc2ccc3c(C(F)(F)F)cc(C(F)(F)F)nc3n2)cc1 | 9.36 µM (inactive) |
| O=C1CC(c2ccccc2)CC(O)=C1C=Nc1cccc(Cl)c1 (centres undefined) | 5.16 µM |
| CC(C)c1nnc(NC(=O)c2c(O)c3cccc4c3n(c2=O)CCC4)s1 | 4.99 µM (inactive) |
| COc1ccc(C(=O)NC(=O)Nc2cc(C)ccn2)cc1 | 9.99 µM (inactive) |
| CCCCCCn1c(SCCC)nc2c1c(=O)[nH]c(=O)n2C | 5.41 µM |
| CN(C(=O)CCl)C1CCCc2ccccc21 (centres undefined) | > 10 µM (inactive) |
| CCOc1cc(S(=O)(=O)Nc2cc(C)cc(C)c2)ccc1Cl | 9.51 µM (inactive) |
| CC(C)(C)c1ccc(C(O)CCCN2CCC(C(O)(c3ccccc3)c3ccccc3)CC2)cc1 (centres undefined) | 4.12 µM (inactive) |
